System: HBsAg
Assay: HBsAg assay: inhibition of HBsAg in HepG2.2.15 cells (CLIA immunoassay of supernatant)
Assay type: cell-based, hepatitis B virus (HBV)
Details: Hepatitis B virus, HepG2.2.15, 144 h, read-out: sAg EC50, HepG2.2.15 cells; supernatant collected at day 6 after exposure; HBsAg chemiluminescence immunoassay
Description: Inhibition of HBsAg was determined in HepG2.2.15 cells. Cells were maintained in culture medium containing 10% fetal calf serum, […], Glutamine, penicillin/streptomycin. Cells were seeded in 96-well collagen-coated plate at a density of 30,000 cells/well. Serially diluted compounds were added to cells next day at the final DMSO concentration of 0.5%. Cells were incubated with compounds for 2-3 days, after which medium was removed. Fresh medium containing compounds was added to cells for additional 3-4 days. At day 6 after exposure of compounds, supernatant was collected, the HBsAg immunoassay (microplate-based chemiluminescence immunoassay kits, CLIA, Autobio Diagnosics Co., Zhengzhou, China, Catalog #CL0310-2) was used to determine the level of HBsAg according to manufactory instruction. Dose-response curves were generated and the EC50 value (effective concentrations that achieved 50% inhibitory effect) were determined using XLfit software. In addition, cells can be seeded at a density of 5,000 cells/well for determination of cell viability in the presence and absence of compounds by using CellTiter-Glo reagent (Promega). Tables 1-3 show EC50 values obtained by the HBsAg assay for selected compounds.

| SMILES | EC50 |
| --- | --- |
| COCCCOc1cc2c(cc1OC)-c1[nH]c(=O)c(C(=O)O)cc1C(C)(C(C)C)C2 (centres unmarked) [Example 6, 5-Isopropyl-9-methoxy-8-(3-methoxypropoxy)-5-methyl-2-oxo-1,6-dihydrobenzo[h]quinoline-3-carboxylic acid] | 44 nM |
| COCCCOc1cc2c(cc1Cl)-c1[nH]c(=O)c(C(=O)O)cc1C(C)(C(C)C)C2 (centres unmarked) [Example 9, 9-Chloro-5-isopropyl-8-(3-methoxypropoxy)-5-methyl-2-oxo-1,6-dihydrobenzo[h]quinoline-3-carboxylic acid] | 31 nM |
| COCCCOc1cc2c(cc1OC)-c1nc(OC)c(C(=O)O)cc1C(C(C)C)C2 (centres unmarked) [Example 12, 5-Isopropyl-2,9-dimethoxy-8-(3-methoxypropoxy)-5,6-dihydrobenzo[h]quinoline-3-carboxylicacid] | 1200 nM |
| COCCCOc1cc2c(cc1OC)-c1[nH]c(=O)c(C(=O)O)c(O)c1C(C(C)C)C2 (centres unmarked) [Example 13, 4-Hydroxy-5-isopropyl-9-methoxy-8-(3-methoxypropoxy)-2-oxo-1,2,5,6-tetrahydrobenzo[h]quinoline-3-carboxylicacid] | 6 nM |
| COCCCOc1cc2c(cc1Cl)-c1[nH]c(=O)c(C(=O)O)c(O)c1C(C)(C(C)C)C2 (centres unmarked) [Example 14, 9-Chloro-4-hydroxy-5-isopropyl-8-(3-methoxypropoxy)-5-methyl-2-oxo-1,2,5,6-tetrahydrobenzo[h]quinoline-3-carboxylic acid] | 62 nM |
| COCCCOc1cc2c(cc1OC)-c1[nH]c(=O)c(C(=O)O)c(F)c1C(C(C)C)C2 (centres unmarked) [Example 17, 4-Fluoro-5-isopropyl-9-methoxy-8-(3-methoxypropoxy)-2-oxo-1,2,5,6-tetrahydrobenzo[h]quinoline-3-carboxylic acid] | 640 nM |
| COCCCOc1cc2c(cc1OC)-c1c(c(O)c(C(=O)O)c(=O)n1Cc1ccccc1)C(C(C)C)C2 (centres unmarked) [Example 18, 1-Benzyl-4-hydroxy-5-isopropyl-9-methoxy-8-(3-methoxypropoxy)-2-oxo-1,2,5,6-tetrahydrobenzo[h]quinoline-3-carboxylic acid] | 15000 nM |
| COCCCOc1cc2c(cc1OC)-c1nc(Cl)c(C(=O)O)c(O)c1C(C(C)C)C2 (centres unmarked) [Example 19, 2-Chloro-4-hydroxy-5-isopropyl-9-methoxy-8-(3-methoxypropoxy)-5,6-dihydrobenzo[h]quinoline-3-carboxylicacid] | 8000 nM |
| COCCCOc1cc2c(cc1OC)-c1[nH]c(=O)c(C(=O)O)c(Cl)c1C(C(C)C)C2 (centres unmarked) [Example 20, 4-Chloro-5-isopropyl-9-methoxy-8-(3-methoxypropoxy)-2-oxo-1,2,5,6-tetrahydrobenzo[h]quinoline-3-carboxylic acid] | 3800 nM |
| COCCCOc1cc2c(cc1OC)-c1nc(Cl)c(C(=O)O)c(Cl)c1C(C(C)C)C2 (centres unmarked) [Example 21, 2,4-Dichloro-5-isopropyl-9-methoxy-8-(3-methoxypropoxy)-5,6-dihydrobenzo[h]quinoline-3-carboxylic acid] | 150 nM |
| COCCCOc1cc2c(cc1OC)-c1[nH]c(=O)cc(O)c1C(C(C)C)C2 (centres unmarked) [Example 22, 4-Hydroxy-5-isopropyl-9-methoxy-8-(3-methoxypropoxy)-5,6-dihydrobenzo[h]quinolin-2(1H)-one] | 340 nM |
| COCCCOc1cc2c(cc1OC)-c1nc(Cl)c(C(=O)O)cc1C(C(C)C)C2 (centres unmarked) [Example 23, 2-Chloro-5-isopropyl-9-methoxy-8-(3-methoxypropoxy)-5,6-dihydrobenzo[h]quinoline-3-carboxylic acid] | 240 nM |
| COCCCOc1cc2c(nc1Cl)-c1c(cc(C(=O)O)c(=O)n1C)C(C(C)C)C2 (centres unmarked) [Example 25, 9-Chloro-5-isopropyl-8-(3-methoxypropoxy)-1-methyl-2-oxo-1,2,5,6-tetrahydro-1,10-phenanthroline-3-carboxylic acid] | 94 nM |
| COCCCOc1cc2c(nc1Cl)-c1[nH]c(=O)c(C(=O)O)c(O)c1C(C(C)C)C2 (centres unmarked) [Example 26, 9-Chloro-4-hydroxy-5-isopropyl-8-(3-methoxypropoxy)-2-oxo-1,2,5,6-tetrahydro-1,10-phenanthroline-3-carboxylic acid] | 3 nM |
| COCCCOc1cc2c(nc1Cl)-c1[nH]c(=O)c(C(=O)O)c(O)c1C(C(C)(C)C)C2 (centres unmarked) [Example 29, 5-(tert-Butyl)-9-chloro-4-hydroxy-8-(3-methoxypropoxy)-2-oxo-1,2,5,6-tetrahydro-1,10-phenanthroline-3-carboxylicacid] | 1 nM |
| COCCCOc1cc2c(cc1OC)-c1[nH]c(=O)c(C(=O)O)c(O)c1C(C)(C(C)C)C2 (centres unmarked) [Example 30, 4-Hydroxy-5-isopropyl-9-methoxy-8-(3-methoxypropoxy)-5-methyl-2-oxo-1,2,5,6-tetrahydrobenzo[h]quinoline-3-carboxylic acid] | 58 nM |
| COCCCOc1cc2c(nc1OC)-c1[nH]c(=O)c(C(=O)O)c(O)c1C(C(C)C)C2 (centres unmarked) [Example 33, 4-Hydroxy-5-isopropyl-9-methoxy-8-(3-methoxypropoxy)-2-oxo-1,2,5,6-tetrahydro-1,10-phenanthroline-3-carboxylic acid] | 4 nM |
| COCCCOc1cc2c(nc1OC)-c1[nH]c(=O)c(C(=O)O)c(O)c1C(C(C)(C)C)C2 (centres unmarked) [Example 36, 5-(tert-Butyl)-4-hydroxy-9-methoxy-8-(3-methoxypropoxy)-2-oxo-1,2,5,6-tetrahydro-1,10-phenanthroline-3-carboxylicacid] | 1 nM |
| CCOc1nc2c(cc1OCCCOC)CC(C(C)C)c1c-2[nH]c(=O)c(C(=O)O)c1O (centres unmarked) [Example 39, 9-Ethoxy-4-hydroxy-5-isopropyl-8-(3-methoxypropoxy)-2-oxo-1,2,5,6-tetrahydro-1,10-phenanthroline-3-carboxylicacid] | 2 nM |
| COCCCOc1cc2c(nc1OCC(F)F)-c1[nH]c(=O)c(C(=O)O)c(O)c1C(C(C)C)C2 (centres unmarked) [Example 42, 9-(2,2-Difluoroethoxy)-4-hydroxy-5-isopropyl-8-(3-methoxypropoxy)-2-oxo-1,2,5,6-tetrahydro-10-phenanthroline-3-carboxylic acid] | 12 nM |
| COCCCOc1cc2c(nc1OC)-c1[nH]c(=O)c(C(=O)O)cc1C(C(C)C)C2 (centres unmarked) [Example 43, 5-Isopropyl-9-methoxy-8-(3-methoxypropoxy)-2-oxo-1,2,5,6-tetrahydro-1,10-phenanthroline-3-carboxylic acid] | 3 nM |
| COCCCOc1cc2c(nc1OC)-c1[nH]c(=O)c(C(=O)O)cc1C(C(C)(C)C)C2 (centres unmarked) [Example 46, 5-(tert-Butyl)-9-methoxy-8-(3-methoxypropoxy)-2-oxo-1,2,5,6-tetrahydro-1,10-phenanthroline-3-carboxylicacid] | 1 nM |

Same assay, conditions: read-out: sAg EC50; HepG2.2.15 cells; supernatant collected at day 6 after exposure; HBsAg chemiluminescence immunoassay

| SMILES | EC50 |
| --- | --- |
| COCCCOc1cc2c(nc1Cl)-c1[nH]c(=O)c(C(=O)O)c(O)c1C(C(C)(C)C)CO2 (single isomer, unassigned) [Example 78, 7-(tert-Butyl)-2-chloro-8-hydroxy-3-(3-methoxypropoxy)-10-oxo-6,7,10,11-tetrahydrooxepino[3,2-b:4,5-b′]dipyridine-9-carboxylicacid] | 6000 nM |
| CCc1nc2c(cc1OCCCOC)OCC(C(C)(C)C)c1c-2[nH]c(=O)c(C(=O)O)c1O (single isomer, unassigned) [Example 80, 7-(tert-Butyl)-2-ethyl-8-hydroxy-3-(3-methoxypropoxy)-10-oxo-6,7,10,11-tetrahydrooxepino[3,2-b:4,5-b′]dipyridine-9-carboxylic acid] | 7000 nM |
| CCc1nc2c(cc1OCCCOC)OCC(C(C)(C)C)c1c-2[nH]c(=O)c(C(=O)O)c1O (single isomer, unassigned) [Example 81, 7-(tert-Butyl)-2-ethyl-8-hydroxy-3-(3-methoxypropoxy)-10-oxo-6,7,10,11-tetrahydrooxepino[3,2-b:4,5-b′]dipyridine-9-carboxylic acid] | 4 nM |
| COCCCOc1cc2c(nc1C1CC1)-c1[nH]c(=O)c(C(=O)O)c(O)c1C(C(C)(C)C)CO2 (single isomer, unassigned) [Example 82, 7-(tert-Butyl)-2-cyclopropyl-8-hydroxy-3-(3-methoxypropoxy)-10-oxo-6,7,10,11-tetrahydrooxepino[3,2-b:4,5-b′]dipyridine-9-carboxylic acid] | 30000 nM |
| COCCCOc1cc2c(nc1C1CC1)-c1[nH]c(=O)c(C(=O)O)c(O)c1C(C(C)(C)C)CO2 (single isomer, unassigned) [Example 83, 7-(tert-Butyl)-2-cyclopropyl-8-hydroxy-3-(3-methoxypropoxy)-10-oxo-6,7,10,11-tetrahydrooxepino[3,2-b:4,5-b′]dipyridine-9-carboxylic acid] | 15 nM |
| COCCCOc1cc2c(nc1OC)-c1[nH]c(=O)c(C(=O)O)c(O)c1C(C(C)(C)C)CO2 (single isomer, unassigned) [Example 85, 7-(tert-Butyl)-8-hydroxy-2-methoxy-3-(3-methoxypropoxy)-10-oxo-6,7,10,11-tetrahydrooxepino[3,2-b:4,5-b′]dipyridine-9-carboxylic acid] | 66 nM |
| COCCCOc1cc2c(nc1OC)-c1[nH]c(=O)c(C(=O)O)c(O)c1C(C(C)(C)C)CO2 (single isomer, unassigned) [Example 86, 7-(tert-Butyl)-8-hydroxy-2-methoxy-3-(3-methoxypropoxy)-10-oxo-6,7,10,11-tetrahydrooxepino[3,2-b:4,5-b′]dipyridine-9-carboxylic acid] | 30000 nM |
